Measured values reported in patent US20190388510A1, “GLUCAGON-T3 CONJUGATES” (priority 2016, published 2019).

Tests used:
Format in all cases: in vivo, mouse
[1] = system: diet-induced obese (DIO) mice
Excerpt: For studies on lipid handling in wildtype mice (Western mice), male C57Bl/6j mice (Jackson Laboratories) were fed a atherogenic Western diet (Research Diets D12079B), which is a high-cholesterol diet (0.21% gm %) with 41% kcal from fat, 43% kcal from carbohydrates, and 17% kcal from protein. For studies on energy metabolism in obese mice (DIO mice), male C57Bl/6j mice (Jackson Laboratories) were fed a diabetogenic diet (Research Diets D12331), which is a high-sucrose diet with 58% kcal from fat 25.5% kcal from carbohydrates, and 16.4% kcal from protein. Both dietary challenges began at 8 weeks of age. HFHSD and HFHCD mice were single- or group-housed on a 12:12-h light-dark cycle at 22° C. with free access to food and water. Mice were maintained under these conditions for a minimum of 16 weeks before initiation of pharmacological studies and were between the ages of 6 months to 12 months old. All injections and tests were performed during the light cycle. Compounds were administered in a vehicle of 1% Tween-80 and 1% DMSO and were given by daily subcutaneous injections at the indicated doses at a volume of 5 μl per g body weight. Mice were randomized and evenly distributed to test groups according to body weight and body composition. If ex vivo molecular biology/histology/biochemistry analyses were performed, the entire group of mice for each treatment was analyzed and scored in a blinded fashion.
(§1) Compounds were administered by repeated subcutaneous injections in the middle of the light phase at the indicated doses with the indicated durations. Co-administration of compounds was administered by single formulated injections. Body weights and food intake were measured every day or every other day after the first injection. All studies with wild-type mice were performed with a group size of n=8 or greater using mice on a C57B16j background.
Whole-body composition (fat and lean mass) was measured using nuclear magnetic resonance technology (EchoMRI).
(§2) Energy intake, energy expenditure, respiratory exchange ratio, and home-cage activity were assessed using a combined indirect calorimetry system (TSE Systems). O2 consumption and CO2 production were measured every 10 min for a total of up to 120 h (after 24 h of adaptation) to determine the respiratory quotient and energy expenditure after an initial treatment regimen. Food intake was determined continuously for the same time as the indirect calorimetry assessments by integration of scales into the sealed cage environment. Home-cage locomotor activity was determined using a multidimensional infrared light beam system with beams scanning the bottom and top levels of the cage, and activity being expressed as beam breaks.
Blood was collected at the indicated times from tail veins or after euthanasia using EDTA-coated microvette tubes (Sarstedt), immediately chilled on ice, centrifuged at 5,000 g and 4° C., and plasma was stored at −80° C. For […] (FPLC) of cholesterol distribution in different lipoprotein fractions, fresh plasma from each treatment group was pooled (n=6-8) and ran over two Superose 6 HR columns in tandem. Cholesterol levels in the collected fractions were determined by colorimetric assay. Plasma insulin and T3 were quantified by an ELISA assay (Ultrasenstive Mouse Insulin ELISA and Rodent T3 ELISA; Alpco). Plasma FGF21 was quantified by an ELISA assay (Mouse FGF21 ELISA; Millipore). Plasma cholesterol, extracted hepatic cholesterol, triglycerides, ALT, and AST were measured using enzymatic assay kits (Thermo Fisher). Plasma creatinine and blood urea nitrogen were measured using enzymatic assay kits (Abcam). Plasma free fatty acids were measured using enzymatic assay kits (Wako). All assays were performed according to the manufacturers' instructions. […]

DIO mice [2] = assay: Glycemic control in DIO mice; settings: i.p. pyruvate 1.5 g kg-1
Description: as §1
For assessment of glucose, pyruvate, and insulin tolerance during chronic treatment, the challenge tests were performed at least 24 hours after the last administration of compounds. […]
as §2, with “breaks. […]” for “breaks.”

DIO mice [3] = assay: Cardiac function and histology in DIO mice (echocardiography)
Description: After chronic treatment, HFHCD-fed or HFHSD-fed C57B16/j male mice (age) were sacrificed with CO2, body weight as well as heart weights and tibia length was taken during necropsy. Livers and whole hearts were embedded in paraffin using a vacuum infiltration processor TissueTEK VIP (Sakura). 3 μm thick slides were cut using a HMS35 rotatory microtome (Zeiss) and H & E staining was performed. For H & E staining, rehydration was done in a decreasing ethanol series, rinsing with tapwater, 2 min Mayers acid Hemalum, bluing in tapwater followed by lmin EosinY (both BioOptica). Dehydration was performed in increasing ethanol series, mounting with Pertex® (Medite GmbH) and coverslips (CarlRoth Chemicals). The slides were evaluated independently using a brightfield microscope (Axioplan, Zeiss). Photos were taken using the Hamamatsu-Nanozoomer HT2.0 in 1.25×, 5×. 20× and 40× magnification. The hepatic steatosis score is defined as the unweighted sum of the three individual scores for steatosis, lobular inflammation and ballooning degeneration. Steatosis is graded by the presence of fat vacuoles in liver cells according to the percentage of affected tissue (0: <5%; 1: 5-33%; 2: 33-66%; 3: >66%). Lobular inflammation is scored by overall assessment of inflammatory foci per 200× field (0: no foci; 1: <2 foci; 2: 2-4 foci; 3: >4 foci). The individual score for ballooning degeneration ranges from 0 (none), 1 (few cells) to 2 (many cells). Total scores range from 0 to 8 with scores <2 considered non-steatosis, 3 considered as borderline steatosis, 4-5 considered onset of steatosis, and >6 considered steatosis. Different to liver and heart, inguinal fat pad samples were embedded in paraffin using Leica embedding machine (EG1150 H) and cut in 5 μm sections using Leica Microtome (RM2255) to perform H&E staining. Samples were stained with hematoxyline for 4 minutes and eosinY for 2 minutes and fixed with Roti®-Histokitt (Carl Roth) before analysing them independently using Microscope Scope A.1 (Zeiss).
For transthoracic echocardiography, a Vevo2100 Imaging System (VisualSonics Inc., Toronto Canada) with a 30 MHz probe was used. All echocardiograms were performed on conscious animals to prevent anesthesia-related impairment of cardiac function as reported previously. Briefly, echocardiograms were obtained in parasternal long and short axis views. For accurate linear measurements of LV internal dimensions (LVID) and […] (LVPW) or septal (IVS) wall thicknesses, M-mode images of the heart in parasternal short-axis view at the level of the papillary muscle were acquired. Qualitative and quantitative measurements were made offline using analytical software (VisualSonics Inc.). Fractional shortening (FS) was calculated as FS %=[(LVIDd−LVIDs)/LVIDd]×100. Ejection fraction (EF) was calculated as EF %=100*((LVvolD−LVvolS)/LVvolD) with LVvol=((7.0/(2.4+LVID)*LVID^3). The corrected LV mass (LV MassCor) was calculated as LV MassCor=0.8(1.053*((LVIDd+LVPWd+IVSd)^3−LVIDd^3)). Heart rate and respiration rate were determined from M-mode tracings, using 3 consecutive intervals.
Gene expression profiling in the liver, iWAT, eWAT, BAT, and heart were performed following treatment of mice according to the treatment paradigms explained in the figure legends for each specific analsysis. For tissue collection, mice were fasted for 4 h and treated with compounds 2 h prior to tissue collection. Gene expression was profiled with quantitative real-time RT-PCR using either TaqMan single probes or with specifically-designed TaqMan low-density array cards. The relative expression of the selected genes was normalized to the reference gene hypoxanthine-guanine phosphoribosyltransferase (Hprt).

For N[C@@H](Cc1cc(I)c(Oc2ccc(O)c(I)c2)c(I)c1)C(=O)O [T3, 3,5,3′-triiodothryonine], the “home cage (ambulatory) activity” value ([1]; DIO mice on HFHSD) was “significantly increased”, the food intake ([1]; DIO mice on HFHSD, 7 days) was “increased” and the body weight lowering ([1]; DIO mice on HFHSD, equimolar doses, 100 nmol kg-1 daily, 7 days) was “Neither glucagon nor T3 appreciably lowered body weight”. The whole-body energy expenditure ([1]; DIO mice on HFHSD, indirect calorimetry) was “substantially increased”, the “circulating levels of T3” value ([1]; mouse, in vivo) was “resulted in an increase” and the rectal temperature ([1]; mouse, in vivo) was “increased rectal temperature”. For the same compound, the “pyruvate tolerance (hepatic glucose output)” value (DIO mice [2]) was “substantially improved”, the “heart histology: cell death” value (DIO mice [3]; histological profiling of the hearts) was “marked cell death was detectable” and the “heart histology: thyrotoxic cardiomyopathy” value (DIO mice [3]; mouse, in vivo) was “marked features of thyrotoxic cardiomyopathy”. For the same compound, the “whole heart expression of T3-sensitive genes (Dio2, Ucp2)” value (DIO mice [3]; mouse, in vivo) was “directly increased” and the “whole heart expression of hypertrophic gene markers (Nppa, Nppb)” value (DIO mice [3]; mouse, in vivo) was “directly increased”.
